Data: patent publication US20160235068A1, “CONTROLLED RELEASE PARTICLES, PRODUCTION METHOD THEREOF, MOLDING MATERIAL, AND MOLDED ARTICLE” (priority 2013, published 2016)
≈ marks a conversion by molar mass, not a printed value.

How the values were obtained:
[1] = Alkali-resistance test (Test A), suspending agent of controlled release particles; type: physicochemical; details: 168 h, 0.05 %
Procedure: 1 mL of the diluted suspending agent was weighed in a glass bottle, and 4 mL of a saturated calcium hydroxide solution was added thereto, thereby preparing a test solution. The test solution was allowed to stand in a constant temperature of 40° C.
After 7 days from allowing the test solution to stand, 5 mL of acetonitrile was added to the test solution, the antibiotic compound was extracted, the amount of the antibiotic compound was determined with HPLC, and the remaining ratio of the antibiotic compound was calculated.

[2] = cited from earlier work

Structure (SMILES)	Alkali-resistance (Test A) Remaining ratio (%) of antibiotic compound [1]	solubility to water [2]
O=[N+]([O-])NC1=NCCN1Cc1ccc(Cl)nc1 [Imidacloprid, 1-(6-chloro-3-pyridylmethyl)-N-nitroimidazolidin-2-ylideneamine]	0%	
CN/C(=N\[N+](=O)[O-])NCc1cnc(Cl)s1 [Clothianidin, (E)-1-(2-chlorothiazole-5-ylmethyl)-3-methyl-2-nitroguanidine]		330 µg/mL (≈ 1320 µM)
